# Measured values from paper PMC11481871, “Discovery of GuaB inhibitors with efficacy against Acinetobacter baumannii infection” (mBio, 2024).
# Values joined by “and” are separate entries in the source; they are usually repeats but may differ in a detail not shown here. Identical values can stand only once. Like-named read-outs stand apart in the source and are kept apart here.
# Columns and labels:
# [1] = test system: Mycobacterium tuberculosis H37Rv; experiment: MIC, resazurin redox assay; type: cell-based; conditions: ATCC 27294 / H37Rv, 192 h, Mycobacterium tuberculosis H37Rv (ATCC27294)
# [2] = test system: Staphylococcus aureus; experiment: MIC, CLSI microdilution; type: cell-based; conditions: NRS 384 / USA300; Staphylococcus aureus USA300 NRS384; RPMI1640
# [3] = test system: Pseudomonas aeruginosa; experiment: MIC, CLSI microdilution; type: cell-based; conditions: 20 h; Pseudomonas aeruginosa PAO1; M9 + casamino acids + glucose
# [4] = test system: Bacillus subtilis; experiment: MIC, CLSI microdilution; type: cell-based; conditions: RPMI1640
# [5] = test system: Acinetobacter baumannii; experiment: MIC, CLSI microdilution; type: cell-based; conditions: 20 h, M9 + casamino acids + glucose
# [6] = target: H. sapiens IMPDH2 (Homo sapiens, UniProt P12268); experiment: IMPDH2 biochemical IC50
# [7] = test system: Escherichia coli; experiment: MIC, CLSI microdilution; type: cell-based; conditions: 20 h; Escherichia coli UPEC CFT073; M9 + casamino acids + glucose
# [8] = test system: Enterococcus faecium; experiment: MIC, CLSI microdilution; type: cell-based; conditions: Enterococcus faecium (ATCC700221); RPMI1640
# [9] = test system: Citrobacter werkmanii; experiment: MIC, CLSI microdilution; type: cell-based; conditions: 20 h; Citrobacter werkmanii (ATCC51114); M9 + casamino acids + glucose
# [10] = test system: Enterobacter aerogenes; experiment: MIC, CLSI microdilution; type: cell-based; conditions: Klebsiella aerogenes, 20 h; Enterobacter aerogenes (ATCC13048); M9 + casamino acids + glucose
# [11] = target: E. coli GuaB (Escherichia coli, UniProt P0ADG7); experiment: GuaB biochemical IC50
# E. coli GuaB, sequence (P0ADG7 whole entry): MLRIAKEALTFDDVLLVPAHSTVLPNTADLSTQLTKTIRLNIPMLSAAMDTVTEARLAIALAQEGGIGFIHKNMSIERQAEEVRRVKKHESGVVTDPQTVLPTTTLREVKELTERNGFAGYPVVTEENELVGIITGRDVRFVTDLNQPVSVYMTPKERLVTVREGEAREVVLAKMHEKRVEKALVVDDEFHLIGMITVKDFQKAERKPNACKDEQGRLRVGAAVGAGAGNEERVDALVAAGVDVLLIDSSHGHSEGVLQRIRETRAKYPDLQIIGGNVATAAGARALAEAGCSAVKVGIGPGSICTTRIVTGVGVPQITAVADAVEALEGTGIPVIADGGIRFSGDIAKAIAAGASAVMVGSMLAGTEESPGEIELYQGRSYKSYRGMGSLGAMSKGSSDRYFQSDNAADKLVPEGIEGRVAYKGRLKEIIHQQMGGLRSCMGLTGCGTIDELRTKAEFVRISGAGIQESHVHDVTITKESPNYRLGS
# [12] = test system: Proteus mirabilis; experiment: MIC, CLSI microdilution; type: cell-based; conditions: 20 h; Proteus mirabilis (ATCC29906); M9 + casamino acids + glucose
# [13] = target: S. aureus GuaB (Staphylococcus aureus, UniProt P99106); experiment: GuaB biochemical IC50
# S. aureus GuaB, sequence (P99106 whole entry): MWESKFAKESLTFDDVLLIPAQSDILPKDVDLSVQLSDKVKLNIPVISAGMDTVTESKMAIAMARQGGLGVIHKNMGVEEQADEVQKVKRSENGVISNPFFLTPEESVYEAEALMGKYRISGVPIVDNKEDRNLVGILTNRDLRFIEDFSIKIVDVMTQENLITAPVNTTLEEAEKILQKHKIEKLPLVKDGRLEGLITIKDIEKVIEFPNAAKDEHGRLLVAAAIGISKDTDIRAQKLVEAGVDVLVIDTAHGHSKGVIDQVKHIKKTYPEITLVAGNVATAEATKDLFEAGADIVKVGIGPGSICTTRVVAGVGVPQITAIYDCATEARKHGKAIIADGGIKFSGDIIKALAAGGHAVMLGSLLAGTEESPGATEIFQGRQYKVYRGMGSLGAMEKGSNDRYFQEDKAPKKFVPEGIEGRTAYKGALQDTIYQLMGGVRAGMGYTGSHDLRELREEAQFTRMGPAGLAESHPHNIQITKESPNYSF
# [14] = test system: Serratia marcescens; experiment: MIC, CLSI microdilution; type: cell-based; conditions: 20 h; Serratia marcescens (ATCC29021); M9 + casamino acids + glucose
# [15] = test system: Acinetobacter baumannii ATCC19606 GuaB mutants; experiment: MIC on GuaBi-resistant A. baumannii 19606 guaB mutants; type: cell-based; conditions: for MIC: Acinetobacter baumannii; for shifts in MIC conferred by on-target mutations: GuaBi-resistant mutants; for Fold shift in MIC vs parental wild-type / MIC of resistant mutant: from fluctuation assay
# [16] = test system: Klebsiella pneumoniae; experiment: MIC, CLSI microdilution; type: cell-based; conditions: ATCC43816, 20 h; Klebsiella pneumoniae (ATCC 43816); M9 + casamino acids + glucose
# [17] = test system: 41 different cellular targets; experiment: Secondary pharmacology panel (Cerep Eurofins); type: binding; conditions: for Hits (>50% Binding) / Hits (>75% Binding): 41 targets
# [18] = test system: Stenotrophomonas maltophilia; experiment: MIC, CLSI microdilution; type: cell-based; conditions: 20 h; Stenotrophomonas maltophilia (ATCC700267); M9 + casamino acids + glucose
# [19] = test system: Primary human hepatocytes; experiment: in vitro; type: cell-based
# Experimental: (§1) Primary human hepatocytes were plated on 384-well, collagen-coated plates in incubation media with no serum or with 10% fetal bovine serum (FBS). Eighteen hours later, cells were treated with the test article at seven concentrations starting at 100 µM in twofold dilutions, chlorpromazine (positive control) at seven concentrations starting at 100 µM in twofold dilutions or aflatoxin (positive control) at seven concentrations starting at 25 µM in twofold dilutions. Cell viability was then assayed using the Promega Cell TiterGlo ATP Assay.
# [20] = in vitro; type: cell-based, human; conditions: human
# Experimental: as §1
# [21] = test system: Mycobacterium marinum; experiment: MIC, CLSI microdilution; type: cell-based; conditions: 7H9 + OADC, 48 h
# [22] = test system: Enterobacter cloacae; experiment: MIC, CLSI microdilution; type: cell-based; conditions: 20 h; Enterobacter cloacae (ATCC222); M9 + casamino acids + glucose
# [23] = test system: Enterococcus faecalis; experiment: MIC, CLSI microdilution; type: cell-based; conditions: Enterococcus faecalis (ATCC47077); RPMI1640
# [24] = target: A. baumannii GuaB (Acinetobacter baumannii, UniProt D0CF46); experiment: GuaB biochemical IC50
# A. baumannii GuaB, sequence (D0CF46 entry or part of it): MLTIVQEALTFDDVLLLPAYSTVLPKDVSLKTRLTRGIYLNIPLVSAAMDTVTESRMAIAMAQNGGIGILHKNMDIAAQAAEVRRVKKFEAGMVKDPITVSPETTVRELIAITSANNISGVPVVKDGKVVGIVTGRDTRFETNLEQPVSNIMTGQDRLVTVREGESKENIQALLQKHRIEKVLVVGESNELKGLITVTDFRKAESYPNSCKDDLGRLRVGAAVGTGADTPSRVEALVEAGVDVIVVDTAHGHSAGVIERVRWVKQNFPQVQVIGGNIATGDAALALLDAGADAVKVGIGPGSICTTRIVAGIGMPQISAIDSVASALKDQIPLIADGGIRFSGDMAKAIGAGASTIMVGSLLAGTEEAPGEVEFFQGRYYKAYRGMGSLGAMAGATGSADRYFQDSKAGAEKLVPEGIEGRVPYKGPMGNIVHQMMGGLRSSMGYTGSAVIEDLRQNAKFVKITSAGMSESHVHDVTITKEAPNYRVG
# [25] = test system: A. baumannii ΔlpxA (LPS-null); experiment: MIC on LPS-null A. baumannii; type: cell-based; conditions: Acinetobacter baumannii, read-out: Avg. MIC
# [26] = test system: Mycobacterium smegmatis; experiment: MIC, CLSI microdilution; type: cell-based; conditions: Mycolicibacterium smegmatis; Mycobacterium smegmatis mc2-155; 7H9 + OADC, 48 h
# [27] = ATCC19606, read-out: A.b.19606 Average CLSI MIC (n=3), guaB allele P25A, M9 media
# [28] = ATCC19606, read-out: A.b.19606 Average CLSI MIC (n=3), guaB allele P25S, M9 media
# [29] = ATCC19606, read-out: A.b.19606 Average CLSI MIC (n=3), guaB allele Y445C, M9 media
# [30] = ATCC19606, read-out: A.b.19606 Average CLSI MIC (n=3), guaB allele Y445N, M9 media
# [31] = ATCC19606, read-out: A.b.19606 Average CLSI MIC (n=3), guaB allele Y445S, M9 media
# [32] = ATCC19606, read-out: MIC of resistant mutant, resistance allele Y445S, from fluctuation assay
# [33] = General cytotoxicity IC50, Serum
# [34] = General cytotoxicity IC50, Serum-Free
compound,measurement,setting,value
"C[C@H](Nc1ccc2ncc3c(c2c1)CCOC3)C(=O)Nc1ccc(Cl)nc1 [G1, (2S)-N-(6-chloro-3-pyridyl)-2-(2,4-dihydro-1H-pyrano[3,4-c]quinolin-9 ylamino)propanamide]",MIC,[1],0.3 µM
same,MIC,[2],0.1 µM
same,MIC,[3],100 µM
same,MIC,[4],1.2 µM
same,MIC,[5],0.5 µM
same,IC50,[6],> 50000 nM
same,MIC,[7],> 100 µM
same,MIC,[8],1 µM
same,MIC,[9],> 100 µM
same,MIC,[10],> 100 µM
same,IC50,[11],480 nM
same,MIC,[12],> 100 µM
same,IC50,[13],0.38 nM
same,MIC,[14],> 100 µM
same,MIC,[15]; [27],6.3 µM
same,MIC,[15]; [28],2.6 µM
same,MIC,[15]; [29],1.6 µM
same,MIC,[15]; [30],41.7 µM
same,MIC,[15]; [31],> 100 µM
same,MIC,"[15]; ATCC19606, read-out: MIC of resistant mutant, resistance allele Y445N, from fluctuation assay",50 µM
same,MIC,[15]; [32],50 µM
same,shifts in MIC conferred by on-target mutations,[15],≥ 32 fold
same,GuaBi CLSI MIC fold change from parent strain,[15]; guaB allele P25A,12
same,GuaBi CLSI MIC fold change from parent strain,[15]; guaB allele P25S,5
same,GuaBi CLSI MIC fold change from parent strain,[15]; guaB allele Y445C,3
same,GuaBi CLSI MIC fold change from parent strain,[15]; guaB allele Y445N,80
same,GuaBi CLSI MIC fold change from parent strain,[15]; guaB allele Y445S,>200
same,Fold shift in MIC vs parental wild-type,[15]; resistance allele Y445N,"64, 64 and 64"
same,MIC of resistant mutant,[15]; resistance allele Y445N,50 µM
same,Fold shift in MIC vs parental wild-type,[15]; resistance allele Y445S,"64, 64"
same,MIC,[16],> 100 µM
same,in vitro safety profile: promiscuity,[17],low promiscuity
same,in vitro safety profile: selectivity,[17],good selectivity
same,Promiscuity Risk,[17]; 10µM,0%
same,Selectivity Risk,[17]; 10µM,0%
same,Hits (>50% Binding),[17]; 10µM,0
same,Hits (>75% Binding),[17]; 10µM,0
same,MIC,[18],14 µM
same,in vitro safety profile: cytotoxicity,[19],low cytotoxicity
same,IC50 at 2 day,[20]; [33],> 100000 nM
same,IC50 at 2 day,[20]; [34],> 100000 nM
same,MIC,[21],0.01 µM
same,MIC,[22],> 100 µM
same,MIC,[23],0.2 µM
same,IC50,[24],0.26 nM
same,MIC,[25],0.025 µM
same,MIC,[26],0.01 µM
"C[C@H](Nc1ccc2ncc(CO)cc2c1)C(=O)Nc1ccc(Cl)c(N(C)C)c1 [G2, (2S)-N-[4-chloro-3-(dimethylamino)phenyl]-2-[[3-(hydroxymethyl)-6-quinolyl]amino]propanamide]",MIC,[1],2.5 µM
same,MIC,[2],1.6 µM
same,MIC,[3],> 100 µM
same,MIC,[4],13.8 µM
same,MIC,[5],3.1 µM
same,IC50,[6],> 50000 nM
same,MIC,[7],> 100 µM
same,MIC,[8],5.2 µM
same,MIC,[9],> 100 µM
same,MIC,[10],> 100 µM
same,IC50,[11],16 nM
same,MIC,[12],> 100 µM
same,IC50,[13],3.4 nM
same,MIC,[14],> 100 µM
same,MIC,[15]; [27],66.7 µM
same,MIC,[15]; [28],66.7 µM
same,MIC,[15]; [29],50 µM
same,MIC,[15]; [30],> 100 µM
same,MIC,[15]; [31],> 100 µM
same,MIC,"[15]; ATCC19606, read-out: MIC of resistant mutant, resistance allele P25A, from fluctuation assay",50 µM
same,MIC,"[15]; ATCC19606, read-out: MIC of resistant mutant, resistance allele P25S, from fluctuation assay",50 µM
same,MIC,"[15]; ATCC19606, read-out: MIC of resistant mutant, resistance allele Y445C, from fluctuation assay",50 µM
same,MIC,[15]; [32],100 µM
same,shifts in MIC conferred by on-target mutations,[15],≥ 32 fold
same,GuaBi CLSI MIC fold change from parent strain,[15]; guaB allele P25A,16
same,GuaBi CLSI MIC fold change from parent strain,[15]; guaB allele P25S,16
same,GuaBi CLSI MIC fold change from parent strain,[15]; guaB allele Y445C,12
same,GuaBi CLSI MIC fold change from parent strain,[15]; guaB allele Y445N,>25
same,GuaBi CLSI MIC fold change from parent strain,[15]; guaB allele Y445S,>25
same,Fold shift in MIC vs parental wild-type,[15]; resistance allele P25A,"32, 32, 32"
same,Fold shift in MIC vs parental wild-type,[15]; resistance allele P25S,"32, 32, 32 and 32"
same,MIC of resistant mutant,[15]; resistance allele P25S,50 µM
same,Fold shift in MIC vs parental wild-type,[15]; resistance allele Y445C,"32, 32, 32 and 64"
same,MIC of resistant mutant,[15]; resistance allele Y445C,100 µM
same,Fold shift in MIC vs parental wild-type,[15]; resistance allele Y445S,64
same,MIC,[16],> 100 µM
same,in vitro safety profile: promiscuity,[17],low promiscuity
same,in vitro safety profile: selectivity,[17],good selectivity
same,Promiscuity Risk,[17]; 10µM,0%
same,Selectivity Risk,[17]; 10µM,0%
same,Hits (>50% Binding),[17]; 10µM,0
same,Hits (>75% Binding),[17]; 10µM,0
same,Promiscuity Risk,[17]; 50µM,0%
same,Selectivity Risk,[17]; 50µM,3%
same,Hits (>50% Binding),[17]; 50µM,1
same,Hits (>75% Binding),[17]; 50µM,0
same,MIC,[18],38 µM
same,in vitro safety profile: cytotoxicity,[19],low cytotoxicity
same,IC50 at 2 day,[20]; [33],> 100000 nM
same,IC50 at 2 day,[20]; [34],> 100000 nM
same,MIC,[21],0.1 µM
same,MIC,[22],> 100 µM
same,MIC,[23],0.3 µM
same,IC50,[24],0.63 nM
same,MIC,[25],0.07 µM
same,MIC,[26],1.3 µM
"C[C@@H](Oc1ccc2ncc3c(c2c1)CCOC3)c1cncc(-c2nc(Cl)c[nH]2)c1 [G8, (R)-9-[1-[5-(4-chloro-1H-imidazol-2-yl)-3-pyridyl]ethoxy]-2,4-dihydro-1H-pyrano[3,4 c]quinoline]",MIC,[1],0.2 µM
same,MIC,[2],0.01 µM
same,MIC,[3],50 µM
same,MIC,[4],0.05 µM
same,MIC,[5],1.3 µM
same,IC50,[6],> 50000 nM
same,MIC,[7],> 100 µM
same,MIC,[8],0.03 µM
same,MIC,[9],> 100 µM
same,MIC,[10],> 100 µM
same,IC50,[11],8 nM
same,MIC,[12],> 100 µM
same,IC50,[13],0.21 nM
same,MIC,[14],> 100 µM
same,MIC,[15]; [27],0.8 µM
same,MIC,[15]; [28],0.6 µM
same,MIC,[15]; [29],0.2 µM
same,MIC,[15]; [30],1.8 µM
same,MIC,[15]; [31],8.3 µM
same,GuaBi CLSI MIC fold change from parent strain,[15]; guaB allele P25A,3.3
same,GuaBi CLSI MIC fold change from parent strain,[15]; guaB allele P25S,2.5
same,GuaBi CLSI MIC fold change from parent strain,[15]; guaB allele Y445C,1
same,GuaBi CLSI MIC fold change from parent strain,[15]; guaB allele Y445N,7
same,GuaBi CLSI MIC fold change from parent strain,[15]; guaB allele Y445S,32
same,MIC,[16],> 100 µM
same,in vitro safety profile: promiscuity,[17],high promiscuity risk
same,in vitro safety profile: selectivity,[17],off-target selectivity
same,Promiscuity Risk,[17]; 50µM,51%
same,Selectivity Risk,[17]; 50µM,17%
same,Hits (>50% Binding),[17]; 50µM,21
same,Hits (>75% Binding),[17]; 50µM,7
same,MIC,[18],5 µM
same,in vitro safety profile: cytotoxicity,[19],cytotoxicity liabilities
same,IC50 at 2 day,[20]; [33],19200 nM
same,IC50 at 2 day,[20]; [34],30200 nM
same,MIC,[21],0.03 µM
same,MIC,[22],> 100 µM
same,MIC,[23],0.01 µM
same,IC50,[24],0.14 nM
same,MIC,[25],0.007 µM
same,MIC,[26],0.02 µM
